Experimental findings from ChEMBL document CHEMBL5465560, “Selectivity Literature for EUbOPEN Chemogenomic Library” (2024) are described below.

In test [1] the target is T1, Dual specificity mitogen-activated protein kinase kinase 5 (Homo sapiens) (UniProt Q13163).
T1 sequence (whole entry): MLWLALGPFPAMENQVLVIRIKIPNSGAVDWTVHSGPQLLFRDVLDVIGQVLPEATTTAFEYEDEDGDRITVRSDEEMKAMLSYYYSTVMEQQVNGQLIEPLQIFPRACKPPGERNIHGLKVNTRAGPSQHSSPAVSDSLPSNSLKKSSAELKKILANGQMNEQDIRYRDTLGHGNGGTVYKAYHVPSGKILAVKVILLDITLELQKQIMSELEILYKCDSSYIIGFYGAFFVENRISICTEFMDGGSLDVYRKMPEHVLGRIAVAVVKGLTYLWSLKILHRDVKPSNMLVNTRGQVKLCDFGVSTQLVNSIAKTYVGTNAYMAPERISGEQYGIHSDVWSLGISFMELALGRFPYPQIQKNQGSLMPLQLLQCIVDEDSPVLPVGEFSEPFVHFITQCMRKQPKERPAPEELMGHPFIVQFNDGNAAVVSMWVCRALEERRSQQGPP
Kind of test: Selectivity interaction (LanthaScreen Eu Kinase Binding Assay) EUB0001632a MAP2K5. The note with it: at 10 µM. (In general: TR-FRET usually uses a lanthanide donor and a delayed reading to cut background.)

The target of test [2] is Serine/threonine-protein kinase 32C (Homo sapiens) (UniProt Q86UX6). Kind of test: Selectivity interaction (Ambit KINOMEscan and KiNATiv profiling in Jurkat cells) EUB0000090b STK32C. The note with it: at 1 µM. The test is classed as cell-based.
Test [3] deals with Protein-tyrosine kinase 2-beta (Homo sapiens) (UniProt Q14289). Kind of test: Selectivity interaction (KinomeScan (DiscoverX)) EUB0000655a PTK2B. The note with it: at 10 µM.
Sequence of Protein-tyrosine kinase 2-beta (Homo sapiens) (Q14289 whole entry, looked up): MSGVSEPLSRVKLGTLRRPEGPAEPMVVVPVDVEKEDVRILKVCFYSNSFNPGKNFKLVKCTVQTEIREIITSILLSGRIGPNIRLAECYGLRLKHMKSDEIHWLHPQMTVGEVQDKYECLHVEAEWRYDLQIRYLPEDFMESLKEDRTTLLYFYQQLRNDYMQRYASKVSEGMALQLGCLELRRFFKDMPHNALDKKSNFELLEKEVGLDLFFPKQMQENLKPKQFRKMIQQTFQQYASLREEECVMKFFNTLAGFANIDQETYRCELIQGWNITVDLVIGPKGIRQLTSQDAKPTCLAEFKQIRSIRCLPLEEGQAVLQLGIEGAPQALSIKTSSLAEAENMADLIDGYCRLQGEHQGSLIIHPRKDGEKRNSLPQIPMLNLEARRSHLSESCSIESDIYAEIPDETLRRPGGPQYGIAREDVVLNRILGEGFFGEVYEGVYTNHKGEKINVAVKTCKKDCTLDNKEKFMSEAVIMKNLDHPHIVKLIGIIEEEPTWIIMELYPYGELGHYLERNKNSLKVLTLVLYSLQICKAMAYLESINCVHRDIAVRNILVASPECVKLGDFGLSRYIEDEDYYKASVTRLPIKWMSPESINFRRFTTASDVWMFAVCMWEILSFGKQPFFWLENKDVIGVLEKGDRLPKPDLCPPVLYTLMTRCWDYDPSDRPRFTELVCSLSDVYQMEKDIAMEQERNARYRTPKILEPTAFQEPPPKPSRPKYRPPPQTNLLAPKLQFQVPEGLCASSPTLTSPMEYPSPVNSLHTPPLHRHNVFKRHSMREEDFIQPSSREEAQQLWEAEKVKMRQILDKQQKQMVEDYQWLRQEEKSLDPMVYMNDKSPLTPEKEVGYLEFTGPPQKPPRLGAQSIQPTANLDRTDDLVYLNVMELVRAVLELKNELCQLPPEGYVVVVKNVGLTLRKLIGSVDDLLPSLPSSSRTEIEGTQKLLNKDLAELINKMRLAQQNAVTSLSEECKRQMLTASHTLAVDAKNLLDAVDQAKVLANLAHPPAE
Test [4] deals with Glycogen synthase kinase-3 alpha (Homo sapiens, UniProt P49840). Kind of test: Selectivity interaction (KinomeScan (DiscoverX)) EUB0000655a GSK3A. The note with it: at 10 µM.
Sequence of Glycogen synthase kinase-3 alpha (P49840 2-483 limits assumed): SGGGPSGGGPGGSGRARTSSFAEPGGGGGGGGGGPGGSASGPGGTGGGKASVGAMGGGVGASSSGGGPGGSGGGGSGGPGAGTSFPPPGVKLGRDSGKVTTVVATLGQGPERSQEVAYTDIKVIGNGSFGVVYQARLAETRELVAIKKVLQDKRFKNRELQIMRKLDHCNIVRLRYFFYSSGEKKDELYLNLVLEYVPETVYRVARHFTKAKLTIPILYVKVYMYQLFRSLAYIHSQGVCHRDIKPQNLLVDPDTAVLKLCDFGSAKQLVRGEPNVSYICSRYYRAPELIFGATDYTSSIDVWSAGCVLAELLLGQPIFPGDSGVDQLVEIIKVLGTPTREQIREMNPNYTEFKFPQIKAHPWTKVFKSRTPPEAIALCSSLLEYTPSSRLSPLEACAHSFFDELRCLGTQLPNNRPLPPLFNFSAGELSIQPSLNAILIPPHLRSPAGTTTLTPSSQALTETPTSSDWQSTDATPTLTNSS
Test [5] deals with T2, Ephrin type-B receptor 4 (Homo sapiens) (UniProt P54760).
T2 sequence (whole entry): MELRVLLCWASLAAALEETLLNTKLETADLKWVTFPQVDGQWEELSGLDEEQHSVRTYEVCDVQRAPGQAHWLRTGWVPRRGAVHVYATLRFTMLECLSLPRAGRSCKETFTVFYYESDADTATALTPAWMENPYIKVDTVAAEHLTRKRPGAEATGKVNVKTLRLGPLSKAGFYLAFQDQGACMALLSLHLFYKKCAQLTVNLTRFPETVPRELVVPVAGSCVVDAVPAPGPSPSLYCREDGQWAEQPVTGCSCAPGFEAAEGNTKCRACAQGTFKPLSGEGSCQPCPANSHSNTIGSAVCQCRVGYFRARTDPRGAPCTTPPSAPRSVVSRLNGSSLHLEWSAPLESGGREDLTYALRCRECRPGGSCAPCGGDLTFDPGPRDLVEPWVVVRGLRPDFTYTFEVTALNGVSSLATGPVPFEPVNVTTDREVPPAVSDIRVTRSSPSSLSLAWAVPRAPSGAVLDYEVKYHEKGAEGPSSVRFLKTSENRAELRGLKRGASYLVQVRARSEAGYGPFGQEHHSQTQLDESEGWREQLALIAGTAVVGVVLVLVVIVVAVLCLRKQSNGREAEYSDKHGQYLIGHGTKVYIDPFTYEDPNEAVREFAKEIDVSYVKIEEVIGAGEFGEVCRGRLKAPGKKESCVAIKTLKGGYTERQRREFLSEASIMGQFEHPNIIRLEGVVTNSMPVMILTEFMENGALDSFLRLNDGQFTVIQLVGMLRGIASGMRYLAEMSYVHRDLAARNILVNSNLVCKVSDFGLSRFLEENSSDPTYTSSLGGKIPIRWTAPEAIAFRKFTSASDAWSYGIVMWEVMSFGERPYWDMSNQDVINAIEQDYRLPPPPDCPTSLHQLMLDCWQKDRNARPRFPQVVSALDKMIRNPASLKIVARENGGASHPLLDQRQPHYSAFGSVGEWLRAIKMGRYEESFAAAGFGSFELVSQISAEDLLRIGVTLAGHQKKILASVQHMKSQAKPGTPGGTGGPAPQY
In words: Selectivity interaction (KinomeScan (DiscoverX)) EUB0000618a EPHB4. The note with it: at 10 µM.

Test [6] concerns the target T3, Bone morphogenetic protein receptor type-2 (Homo sapiens) (UniProt Q13873).
T3 sequence (whole entry): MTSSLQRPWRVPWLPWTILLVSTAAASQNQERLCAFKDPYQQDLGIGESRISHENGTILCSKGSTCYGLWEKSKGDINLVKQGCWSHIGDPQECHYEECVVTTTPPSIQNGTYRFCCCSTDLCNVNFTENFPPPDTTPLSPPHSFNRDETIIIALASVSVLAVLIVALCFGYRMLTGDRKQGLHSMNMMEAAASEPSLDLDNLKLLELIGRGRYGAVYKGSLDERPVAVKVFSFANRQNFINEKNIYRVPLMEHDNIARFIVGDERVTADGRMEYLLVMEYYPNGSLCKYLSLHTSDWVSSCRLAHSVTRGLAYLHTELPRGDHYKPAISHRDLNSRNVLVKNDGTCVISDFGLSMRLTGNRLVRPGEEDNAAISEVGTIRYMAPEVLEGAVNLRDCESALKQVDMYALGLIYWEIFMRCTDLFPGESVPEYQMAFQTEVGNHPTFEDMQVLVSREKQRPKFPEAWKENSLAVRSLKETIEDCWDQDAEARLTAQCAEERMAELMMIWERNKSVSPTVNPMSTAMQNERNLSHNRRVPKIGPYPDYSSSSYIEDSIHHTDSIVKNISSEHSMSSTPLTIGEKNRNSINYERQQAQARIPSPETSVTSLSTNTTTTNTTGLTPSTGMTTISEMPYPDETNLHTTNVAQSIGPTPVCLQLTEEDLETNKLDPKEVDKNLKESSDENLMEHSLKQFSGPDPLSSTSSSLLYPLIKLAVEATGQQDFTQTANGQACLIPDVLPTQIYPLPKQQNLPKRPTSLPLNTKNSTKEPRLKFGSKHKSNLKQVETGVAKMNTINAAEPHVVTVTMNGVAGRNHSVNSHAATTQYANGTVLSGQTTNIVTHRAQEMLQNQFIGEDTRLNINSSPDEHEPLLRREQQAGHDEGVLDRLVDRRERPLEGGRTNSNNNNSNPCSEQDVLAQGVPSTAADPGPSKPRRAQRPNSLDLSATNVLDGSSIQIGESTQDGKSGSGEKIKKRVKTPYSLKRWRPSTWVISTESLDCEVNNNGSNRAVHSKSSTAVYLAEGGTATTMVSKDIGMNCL
Kind of test: Selectivity interaction (KinomeScan (DiscoverX)) EUB0000092b BMPR2. The note with it: at 10 µM.

In test [7] the target is TRAF2 and NCK-interacting protein kinase (Homo sapiens) (UniProt Q9UKE5). Kind of test: Selectivity interaction (KinomeScan (DiscoverX)) EUB0001079a TNIK. The note with it: at 1 µM.
Sequence of TRAF2 and NCK-interacting protein kinase (Homo sapiens) (Q9UKE5 whole entry, looked up): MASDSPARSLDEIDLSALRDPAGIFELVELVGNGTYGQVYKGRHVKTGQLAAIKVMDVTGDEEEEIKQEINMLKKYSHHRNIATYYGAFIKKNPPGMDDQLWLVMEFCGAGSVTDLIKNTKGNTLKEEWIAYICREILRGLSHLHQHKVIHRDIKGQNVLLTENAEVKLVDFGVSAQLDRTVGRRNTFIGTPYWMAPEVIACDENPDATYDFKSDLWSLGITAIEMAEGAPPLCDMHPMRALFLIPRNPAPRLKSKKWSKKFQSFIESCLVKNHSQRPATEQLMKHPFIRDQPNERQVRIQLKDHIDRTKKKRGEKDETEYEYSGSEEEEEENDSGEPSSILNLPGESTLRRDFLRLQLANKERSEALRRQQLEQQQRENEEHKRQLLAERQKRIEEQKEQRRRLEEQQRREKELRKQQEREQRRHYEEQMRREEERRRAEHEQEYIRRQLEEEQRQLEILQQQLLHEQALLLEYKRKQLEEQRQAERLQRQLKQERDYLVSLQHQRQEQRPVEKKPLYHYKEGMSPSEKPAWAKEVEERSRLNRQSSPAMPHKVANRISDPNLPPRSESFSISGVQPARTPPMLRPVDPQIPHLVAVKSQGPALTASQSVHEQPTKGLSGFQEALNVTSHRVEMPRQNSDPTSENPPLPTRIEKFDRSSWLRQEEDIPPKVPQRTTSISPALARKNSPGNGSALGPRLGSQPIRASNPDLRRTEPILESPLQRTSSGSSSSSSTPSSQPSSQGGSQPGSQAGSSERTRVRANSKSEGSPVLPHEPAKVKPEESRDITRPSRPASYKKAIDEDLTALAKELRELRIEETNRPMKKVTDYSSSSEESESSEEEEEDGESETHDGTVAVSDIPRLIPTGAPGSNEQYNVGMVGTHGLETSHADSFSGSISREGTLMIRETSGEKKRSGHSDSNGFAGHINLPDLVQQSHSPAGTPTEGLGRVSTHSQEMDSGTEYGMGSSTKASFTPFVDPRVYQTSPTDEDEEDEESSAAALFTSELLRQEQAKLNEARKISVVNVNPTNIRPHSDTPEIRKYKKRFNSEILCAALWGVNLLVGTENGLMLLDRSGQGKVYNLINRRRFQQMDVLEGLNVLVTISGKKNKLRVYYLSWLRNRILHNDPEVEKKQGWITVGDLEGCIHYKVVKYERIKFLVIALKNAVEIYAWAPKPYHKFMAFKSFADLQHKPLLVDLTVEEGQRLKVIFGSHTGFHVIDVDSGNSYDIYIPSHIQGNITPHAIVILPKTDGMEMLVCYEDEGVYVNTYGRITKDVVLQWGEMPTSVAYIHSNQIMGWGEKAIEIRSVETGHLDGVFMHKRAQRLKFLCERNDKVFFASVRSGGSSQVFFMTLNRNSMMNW
The target of test [8] is Serine/threonine-protein kinase/endoribonuclease IRE1 (Homo sapiens) (UniProt O75460). In words: Selectivity interaction (KinomeScan (DiscoverX)) EUB0001079a ERN1. The note with it: at 1 µM.
Sequence of Serine/threonine-protein kinase/endoribonuclease IRE1 (Homo sapiens) (O75460 19-977 limits assumed): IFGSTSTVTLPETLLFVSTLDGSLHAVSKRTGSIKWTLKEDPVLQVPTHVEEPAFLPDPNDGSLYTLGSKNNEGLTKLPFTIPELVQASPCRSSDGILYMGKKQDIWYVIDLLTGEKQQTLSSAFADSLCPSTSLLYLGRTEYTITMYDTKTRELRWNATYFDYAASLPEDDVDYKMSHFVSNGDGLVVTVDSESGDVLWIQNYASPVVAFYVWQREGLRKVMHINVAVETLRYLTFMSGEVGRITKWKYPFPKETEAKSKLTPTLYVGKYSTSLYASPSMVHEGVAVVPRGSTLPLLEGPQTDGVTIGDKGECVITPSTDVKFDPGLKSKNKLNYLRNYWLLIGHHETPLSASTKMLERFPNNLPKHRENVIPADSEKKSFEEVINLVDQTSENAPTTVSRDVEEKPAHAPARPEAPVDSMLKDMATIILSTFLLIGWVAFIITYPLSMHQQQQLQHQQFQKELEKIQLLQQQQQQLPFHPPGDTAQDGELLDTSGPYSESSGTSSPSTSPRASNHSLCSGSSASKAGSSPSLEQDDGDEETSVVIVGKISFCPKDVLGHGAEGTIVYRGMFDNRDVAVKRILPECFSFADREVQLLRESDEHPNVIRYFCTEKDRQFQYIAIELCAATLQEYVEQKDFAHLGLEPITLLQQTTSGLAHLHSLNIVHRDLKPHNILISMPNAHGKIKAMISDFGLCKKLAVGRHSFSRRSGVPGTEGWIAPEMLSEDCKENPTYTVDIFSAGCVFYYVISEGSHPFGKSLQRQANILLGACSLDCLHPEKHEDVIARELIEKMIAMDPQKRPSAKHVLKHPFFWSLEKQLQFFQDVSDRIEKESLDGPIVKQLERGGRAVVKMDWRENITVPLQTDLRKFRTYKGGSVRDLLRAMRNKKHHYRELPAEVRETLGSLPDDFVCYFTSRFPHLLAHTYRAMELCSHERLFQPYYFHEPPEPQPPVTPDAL
The target of test [9] is Macrophage colony-stimulating factor 1 receptor (Homo sapiens) (UniProt P07333). In words: Selectivity interaction (Millipore kinase profiler) EUB0000124b CSF1R. The note with it: at 10 µM.
Sequence of Macrophage colony-stimulating factor 1 receptor (Homo sapiens) (P07333 whole entry): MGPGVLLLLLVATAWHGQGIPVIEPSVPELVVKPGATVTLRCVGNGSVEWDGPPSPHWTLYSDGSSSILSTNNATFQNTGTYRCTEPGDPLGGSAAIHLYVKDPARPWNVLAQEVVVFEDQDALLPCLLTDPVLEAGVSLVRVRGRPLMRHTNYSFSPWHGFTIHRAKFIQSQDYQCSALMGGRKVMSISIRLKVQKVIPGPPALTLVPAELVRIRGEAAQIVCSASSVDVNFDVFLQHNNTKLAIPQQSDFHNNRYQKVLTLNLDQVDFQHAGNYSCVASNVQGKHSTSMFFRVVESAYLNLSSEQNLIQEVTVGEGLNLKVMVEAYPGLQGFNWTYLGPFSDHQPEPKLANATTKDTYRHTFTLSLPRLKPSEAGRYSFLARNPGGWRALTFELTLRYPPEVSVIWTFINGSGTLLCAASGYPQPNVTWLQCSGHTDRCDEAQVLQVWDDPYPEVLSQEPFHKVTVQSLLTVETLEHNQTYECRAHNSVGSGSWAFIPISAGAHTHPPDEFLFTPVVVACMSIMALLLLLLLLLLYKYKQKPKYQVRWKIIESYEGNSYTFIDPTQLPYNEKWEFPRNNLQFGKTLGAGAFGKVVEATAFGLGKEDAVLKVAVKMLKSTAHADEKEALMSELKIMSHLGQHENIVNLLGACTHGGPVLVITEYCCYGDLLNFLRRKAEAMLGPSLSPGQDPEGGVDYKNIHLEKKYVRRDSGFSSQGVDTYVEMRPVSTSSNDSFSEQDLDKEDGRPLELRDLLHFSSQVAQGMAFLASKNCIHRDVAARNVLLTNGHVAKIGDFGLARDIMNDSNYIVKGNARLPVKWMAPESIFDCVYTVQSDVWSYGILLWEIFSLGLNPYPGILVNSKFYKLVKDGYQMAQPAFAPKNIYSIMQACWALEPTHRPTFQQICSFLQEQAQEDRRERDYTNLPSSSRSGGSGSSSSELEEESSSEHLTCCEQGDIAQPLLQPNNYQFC

In [1], `Cn1cc(-n2cnc3c(NCc4nc5cc(Cl)c(Cl)cc5[nH]4)nc(N4CCOCC4)nc32)cn1` returned a % of inhibition of 0.023%.

Regarding `CN(C)C/C=C/C(=O)Nc1ccc(C(=O)N2CCCC(Nc3ncc(Cl)c(-c4c[nH]c5ccccc45)n3)C2)cc1` (centres undefined), the % of control in [2] was found to be 71%.

As to `CN(C)CCOc1ccc(-c2nc(-c3ccncc3)c(-c3ccc4c(c3)CC/C4=N\O)[nH]2)cc1`, the % of control in [3] and in test [4] was 100% in each case.

With `O[C@H]1CC[C@H](Nc2ncc3nc(Nc4c(F)cc(F)cc4F)n([C@H]4CCOC4)c3n2)CC1`, in test [5], the % of control came out at 100%.

In [6], `CCC(=O)N1CCN(c2ccc(-n3c(=O)ccc4cnc5ccc(-c6cnc7ccccc7c6)cc5c43)cc2C(F)(F)F)CC1` yielded a % of control of 85%.

With `Nc1cnc(N2CCc3cc(S(=O)(=O)Nc4c(F)cc(Cl)cc4F)cc(N4CCCC4=O)c32)nc1` [TP-020n], the % of control in [7] and in test [8] was 100% each time.

Take `CC(=O)Nc1cccc(-n2c(=O)n(C3CC3)c(=O)c3c(Nc4ccc(I)cc4F)n(C)c(=O)c(C)c32)c1`: in [9], the % of control worked out at 128%.
